# From article PMC3519527, “Compounds from Sorindeia juglandifolia (Anacardiaceae) exhibit potent anti-plasmodial activities in vitro and in vivo” (Malaria Journal, 2012)
# Values joined by “and” are separate entries in the source; they are usually repeats but may differ in a detail not shown here. Equal values may be shown once. Where a name gives a salt, the structure may show the parent alone. Read-outs that look alike come from different tables or passages of the source.
# Columns and labels:
# [1] = test system: Plasmodium falciparum chloroquine-resistant strain W2; test: In vitro screening against Plasmodium falciparum W2 (flow cytometry, 48 h); type: cell-based; conditions: read-out: P. falciparum W2 IC50±SD
# Description: Plasmodium falciparum strain W2, known to be resistant to chloroquine and other anti-malarials, was cultured in sealed flasks at 37°C, in a 3% O2, […] and 91% N2 atmosphere in RPMI 1640, 25 mM HEPES, pH 7.4, supplemented with heat inactivated 10% human serum and human erythrocytes to achieve a 2% haematocrit. Serum and erythrocytes were purified from blood voluntarily given by adults with no recent contact with malaria, and who have signed an informed consent form. Parasites were synchronized in the ring stage by serial treatment with 5% sorbitol (Sigma) and tested at 1% parasitaemia. Stock solutions of plant extracts were prepared as 1 mg/ml in DMSO, diluted as needed for individual experiments, and tested in triplicate as described previously. The stock solutions were diluted in supplemented RPMI 1640 medium so as to have at most 0.2% DMSO in the final reaction medium. Equal volumes (100μl) of inhibitors and 1% parasitaemia, 4% haematocrit culture were then added and gently mixed thoroughly. Negative controls contained equal concentrations of DMSO. Positive controls contained 1 μM chloroquine phosphate (Sigma). Cultures were incubated at 37°C for 48 h. Parasites at the ring stage were thereafter fixed by replacing the serum medium by an equal volume of 1% formaldehyde in PBS. Aliquots (5 μl) of each culture were then added to round-bottom polystyrene 96 well plates containing 150 μl of 100 mM NH4Cl, 0.1% Triton X- 100 and 1 nM YOYO-1 nuclear dye (Molecular Probes) in PBS, and the parasitaemia of treated and control cultures were compared using a Becton-Dickinson FACSort flow cytometer equipped with AMS-1 loader (Cytek Development) to count nucleated (parasitized) erythrocytes. Data acquisition was performed using Cell Quest software.
# [2] = test system: P. falciparum field isolates; test: In vitro screening against Plasmodium falciparum field isolates (Giemsa smears, 48 h); type: cell-based
# Description: Plasmodium falciparum isolates were prepared as described previously. Blood was collected from outpatients presenting at the Etoug-Ebe Baptist Health Centre in Yaoundé with uncomplicated malaria. Patients older than five years of age with mono infection with P. falciparum and parasite density greater than 6,000 asexual parasites per microliter of blood were considered for inclusion in the study. Those with recent history of self-medication with anti-malarial drugs were excluded. After patients agreed to participate in the study and signed the consent form, 5 mL of blood was collected from them by venipuncture into heparinized tubes. The blood was centrifuged at 3,000 rpm for 15 min and the supernatant discarded. The pellets were suspended in 10 mL of pre-warmed RPMI 1640 medium and centrifuged again twice at 3,000 rpm for 5 min, and the supernatant was then discarded. The volume of the packed-cells was estimated and mixed with an equal amount of RPMI 1640, 25 mM HEPES, pH 7.4, and subsequently used at 4% haematocrit for experiments. Thin smears were evaluated to assess the parasitaemia, the developmental stages of parasites, and the colour, shape and size of red blood cells. Nine such isolates were prepared and subsequently used for experiments.
# The activity of plant products was assessed as previously described. […] Stock solutions of plant extracts were prepared at 1 mg/ml in DMSO and diluted as needed for individual experiments in 96-well plates using RPMI 1640, to achieve a maximum final DMSO concentration of 0.2%. Chloroquine was used as positive control at 1 μM, and the negative control was an equal concentration of DMSO. To assess the susceptibility of parasites to drugs, they were maintained in RPMI 1640 supplemented with 25 mM HEPES buffer (pH 7.4), 0.05% ampicillin, and 10% AB+ human serum at 37°C, in a candle jar. To achieve this, 200 μl parasite suspensions at 4% haematocrit and 0.1%– 0.3% parasitaemia were added to 50 μl of each concentration of inhibitor in individual wells, each tested in triplicate. Cultures were incubated at 37°C for 48 h in a candle jar. To estimate the effects of inhibitors after 48 h, thin smears from treated and control cultures were fixed in methanol for 30 s, stained using fresh 5% Giemsa solution (Sigma) in phosphate buffer (pH 7.1), and examined by counting the parasitaemia per 100 erythrocytes. IC50s were calculated from curves plotting percent growth versus drug concentration using Prism 5.0 software with data fitted by nonlinear regression to the variable slope sigmoidal dose–response formula y = 100/[1 + 10^(logIC50− x)H, where H is the Hill coefficient or slope factor [5].
# [3] = test system: Plasmodium berghei strain B; test: In vivo suppressive test in mice; parameters: species or system Plasmodium berghei in Swiss albino mice; conditions: for SD50 (suppressive dose at 50%): oral, parasitaemia 24 h after last dose
# Description: (§1) Compound 1 (2,3,6-trihydroxy benzoic acid), obtained from the fractionation of S.juglandifolia extract, was assessed in vivo using the Plasmodium berghei rodent parasite model, according to the procedure described by Okokon et al.[12] with a few modifications. Plasmodium berghei strain B (MRA-406, MR4, ATCC® Manassas Virginia) was obtained from BEI Resources and used for the experiments. Female Swiss albino mice aged eight weeks and weighing ~20 g were used for efficacy and toxicity experiments. These animals were bred in the animal house of the Faculty of Medicine, University of Yaoundé I. They were fed a standard laboratory diet (S.P.C. Ltd., Bafoussam, Cameroon) and given clean tap water ad libitum. Animal welfare requirements were strictly considered during the experiments, as described in the protocol approved by the National Ethics Committee (Reg. No.FWAIRB00001954). To start infections, a cryotube of parasites was thawed and the undiluted contents were injected immediately i.p. into naïve recipient mice. Three days after infection, the parasitaemia was evaluated daily in tail vein blood through Giemsa-stained thin smear observation under oil immersion at 100X magnification. Passage of infection into new mice consisted of an i.p. injection of 200 μL of 10^6 infected erythrocytes/mL sterile PBS. The test compound was dissolved and diluted in Tween 20: Ethanol (7:3 v/v).
# Preliminary screening of the compound consisted of a suppressive test. To achieve this, animals were infected i.p. with 200 μL of 10^6 infected erythrocytes/mL sterile PBS. Four hours after infection, duplicate batches of animals were treated as follows: four batches of six mice each were given test drug orally at respective dosages of 10, 30, 50 and 100 mg/kg, and subsequently once daily for four consecutive days. Negative controls consisted of one batch of 6 infected mice receiving no drug (dose 0), and one batch of six uninfected animals. Positive controls consisted of one batch of infected mice receiving quinine sulfate at 24 mg/kg.
# (§2) Curative assays were subsequently conducted using the same setting, with animal receiving drug at daily oral dosages of 10, 30, 50 and 100 mg/kg for 5 consecutive days, starting day 3 (72 hours) after infection. Thin blood smears were made daily from the tail blood of mice and the level of parasitaemia assessed by examination of Giemsa-stained smears using a microscope at 100X magnification.
# recombinant falcipain-2 = molecular target: T1, recombinant falcipain-2 (Plasmodium falciparum, UniProt Q8I6U4); test: Falcipain-2 inhibition (Z-Leu-Arg-AMC hydrolysis); type: biochemical; conditions: recombinant enzyme, pH 5.5, triplicate; for IC50: read-out: Falcipain-2 IC50±SD
# T1 construct: made in house
# T1 sequence (Q8I6U4 244-484): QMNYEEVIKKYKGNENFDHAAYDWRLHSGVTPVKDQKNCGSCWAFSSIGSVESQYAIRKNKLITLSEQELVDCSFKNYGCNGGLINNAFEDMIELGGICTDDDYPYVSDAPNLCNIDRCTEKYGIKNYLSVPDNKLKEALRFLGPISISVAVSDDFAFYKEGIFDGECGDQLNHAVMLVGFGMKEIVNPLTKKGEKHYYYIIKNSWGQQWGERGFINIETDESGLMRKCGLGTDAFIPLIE
# Description: Falcipain-2 activity was measured as hydrolysis of the fluorogenic substrate benzyloxycarbonyl-Leu-Arg-7-amino-4-methyl-coumarin (Z-Leu-Arg-AMC) using a Fluoroskan II spectrofluorometer, as described previously. For inhibitor assays, recombinant falcipain-2 prepared as described previously was incubated with inhibitors (added from stocks concentrated 100- to 1,000-fold in dimethyl sulfoxide [DMSO]) with 10 mM dithiothreitol, pH 5.5, for 30 min at room temperature before the substrate (50 μM) was added. Equal concentrations of enzyme were used for each experiment. Multiple inhibitor concentrations were studied in triplicate, and the rates of hydrolysis were determined and compared to those of controls containing equal concentrations of DMSO. All values were normalized to the control activity, and IC50s were calculated with the Prism 5.0 program, with data fitted by nonlinear regression.
# [4] = test system: Plasmodium berghei strain B; test: In vivo curative test in mice; parameters: species or system Plasmodium berghei in Swiss albino mice
# Description: as §1, §2
# [5] = Plasmodium falciparum, W2, 48 h, W2 strain, 48 h, triplicate
# [6] = Plasmodium falciparum, isolate E01, read-out: IC50±SD
# [7] = Plasmodium falciparum, isolate E02, read-out: IC50±SD
# [8] = Plasmodium falciparum, isolate E03, read-out: IC50±SD
# [9] = Plasmodium falciparum, isolate E04, read-out: IC50±SD
# [10] = Plasmodium falciparum, isolate E05, read-out: IC50±SD
# [11] = Plasmodium falciparum, isolate E06, read-out: IC50±SD
# [12] = Plasmodium falciparum, isolate E07, read-out: IC50±SD
# [13] = Plasmodium falciparum, isolate E08, read-out: IC50±SD
# [14] = Plasmodium falciparum, isolate E09, read-out: IC50±SD
structure (smiles),measurement,setting,value
"C[C@@H]1CC[C@H]2[C@@H](C)C(=O)O[C@@H]3O[C@@]4(C)CC[C@@H]1[C@]32OO4 [ART, artemisinin, reference compound]",IC50,[1]; [5],0.007 ± 0.01 µg/mL
"CCN(CC)CCCC(C)Nc1ccnc2cc(Cl)ccc12 (centres unmarked) [CQ, chloroquine, reference compound]",IC50,"[1]; Plasmodium falciparum, W2, 48 h",0.05 ± 0.01 µg/mL
same,IC50,"[2]; Plasmodium falciparum, read-out: IC50 against P. falciparum isolates, span over the nine field isolates",0.0166 to 0.0384 µg/mL
same,IC50,"[2]; Plasmodium falciparum, read-out: IC50±SD, isolate E01",0.0254 ± 0.00347 µg/mL
same,IC50,"[2]; Plasmodium falciparum, read-out: IC50±SD, isolate E02",0.0233 ± 0.019 µg/mL
same,IC50,"[2]; Plasmodium falciparum, read-out: IC50±SD, isolate E03",0.0384 ± 0.00437 µg/mL
same,IC50,"[2]; Plasmodium falciparum, read-out: IC50±SD, isolate E04",0.0272 ± 0.00072 µg/mL
same,IC50,"[2]; Plasmodium falciparum, read-out: IC50±SD, isolate E05",0.0166 ± 0.00148 µg/mL
same,IC50,"[2]; Plasmodium falciparum, read-out: IC50±SD, isolate E06",0.0192 ± 0.00486 µg/mL
same,IC50,"[2]; Plasmodium falciparum, read-out: IC50±SD, isolate E07",0.0243 ± 0.00332 µg/mL
same,IC50,"[2]; Plasmodium falciparum, read-out: IC50±SD, isolate E08",0.0187 ± 0.00094 µg/mL
same,IC50,"[2]; Plasmodium falciparum, read-out: IC50±SD, isolate E09",0.0188 ± 0.00187 µg/mL
"O=C(O)c1c(O)ccc(O)c1O [Compound 1, 2,3,6-trihydroxy benzoic acid]",IC50,[1]; [5],16.5 µM
same,IC50,"[1]; W2 strain, 48 h, triplicate, listed as 2,3,6-trihydroxy benzoic acid (1)",16.5 ± 0.47 µM
same,melting point,,188.5 to 190 °C
same,Mean % Suppression/Inhibition,"[3]; 10 mg/kg oral, once daily, 24 h after last dose",22.73%
same,Mean % Suppression/Inhibition,"[3]; 30 mg/kg oral, once daily, 24 h after last dose",35.95%
same,Mean % Suppression/Inhibition,"[3]; 50 mg/kg oral, once daily, 24 h after last dose",53.66%
same,Mean % Suppression/Inhibition,"[3]; 100 mg/kg oral, once daily, 24 h after last dose",69.63%
same,SD50 (suppressive dose at 50%),[3],44.9 mg/kg and 44.9 ± 1.6 mg/kg
same,SD50 (suppressive dose at 50%),"[3]; listed as 2,3,6-trihydroxy benzoic acid (1)",^cSD50 = 44.9 ± 1.6 mg/kg
same,IC50,recombinant falcipain-2,35.4 µM
same,IC50,[2]; [6],11.3 ± 0.92 µM
same,IC50,[2]; [7],17.1 ± 0.48 µM
same,IC50,[2]; [8],22 ± 0.93 µM
same,IC50,[2]; [9],24.8 ± 1.04 µM
same,IC50,[2]; [10],6.32 ± 0.16 µM
same,IC50,[2]; [11],36.1 ± 2.01 µM
same,IC50,[2]; [12],33.7 ± 0.61 µM
same,IC50,[2]; [13],9.92 ± 4.82 µM
same,IC50,[2]; [14],19.77 ± 0.14 µM
same,IC50,"[2]; Plasmodium falciparum, span over the nine field isolates, read-out: IC50 against P. falciparum isolates",6.3 µM
same,IC50,"[2]; span over the nine field isolates, read-out: IC50 against P. falciparum isolates",6.3 to 36.1 µM
same,Mean % Suppression/Inhibition,[4]; 10 mg/kg oral daily for 5 days from day 3,20.95%
same,Mean % Suppression/Inhibition,[4]; 30 mg/kg oral daily for 5 days from day 3,41.00%
same,Mean % Suppression/Inhibition,[4]; 50 mg/kg oral daily for 5 days from day 3,57.27%
same,Mean % Suppression/Inhibition,[4]; 100 mg/kg oral daily for 5 days from day 3,66.40%
same,ED50,"[4]; Plasmodium berghei, oral, parasitaemia 24 h after last dose, read-out: ED50 (effective dose at 50%)",42.2 mg/kg
"COC(=O)c1c(O)ccc(O)c1O [Compound 2, 2,3,6-trihydroxy methyl benzoate]",IC50,[1]; [5],13 µM
same,IC50,"[1]; W2 strain, 48 h, triplicate, listed as 2,3,6-trihydroxy methyl benzoate (2)",13 ± 1.63 µM
same,IC50,recombinant falcipain-2,6.1 µM and 6.09 µM
same,IC50,[2]; [6],7.02 ± 0.07 µM
same,IC50,[2]; [7],14.7 ± 0.15 µM
same,IC50,[2]; [8],19.8 ± 0.38 µM
same,IC50,[2]; [9],18.8 ± 1.04 µM
same,IC50,[2]; [10],12.2 ± 0.02 µM
same,IC50,[2]; [11],23.1 ± 2.01 µM
same,IC50,[2]; [12],26.69 ± 0.02 µM
same,IC50,[2]; [13],13.3 ± 1.85 µM
same,IC50,[2]; [14],24.4 ± 0.05 µM
"CC(C)C[C@H](NC(=O)[C@H]1O[C@@H]1C(=O)O)C(=O)NCCCCN=C(N)N [Compound E64, l-transepoxy-succinyl-leucylamido-(4-guanidino)-butane, reference compound]",Falcipain-2 IC50±SD,recombinant falcipain-2,0.049 ± 0.003 µg/mL
"C=C[C@H]1C[N@@]2CC[C@H]1C[C@H]2[C@H](O)c1ccnc2ccc(OC)cc12 [Quinine sulfate, quinine sulfate, reference compound]",Mean % Suppression/Inhibition,"[3]; 24 mg/kg, positive control",71.34%
same,Mean % Suppression/Inhibition,"[4]; 24 mg/kg, positive control",89.50%
